Measurements from ChEMBL document CHEMBL1201862, “PubChem BioAssay data set” (2004).
Active and inactive are the calls of the source.

What was measured:
[1] = rise of 2N DNA cells, HeLa – IC50, dose response (AID 1117349); format: functional, cell-based
[2] = rise of 4N DNA cells, HeLa – IC50, dose response (AID 1117351); format: functional, cell-based
[3] = Inhibition of T. cruzi Tulahuen strain amastigotes in L-6 muscle cells Measured in Cell-Based and Microorganism Combination System Using Plate Reader - 2138-03_Inhibitor_Dose_CherryPick_Activity.; format: functional; conditions: Rattus norvegicus, L6
[4] = L6 myocyte viability loss – cell-based, plate reader, cherry-pick, cytotoxicity control, dose response (AID 651896); format: functional
[5] = Inhibition of Plasmodium falciparum NF54 Measured in Cell-Based System Using Plate Reader - 2138-11_Inhibitor_Dose_CherryPick_Activity.; format: functional
[6] = antileishmanial activity on axenic amastigotes – plate reader, cherry pick, dose response (AID 651891); format: functional, cell-based; conditions: Leishmania donovani
[7] = intracellular Trypanosoma cruzi inhibitors in host cells – cell-based, plate reader, cherry-pick samples, set 3, dose response (AID 651818); format: functional;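 also: compounds incubated with infected cells for about four days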
[8] = African trypanosome bloodstream form growth inhibition – STIB900 strain, plate reader, cherry pick, dose response (AID 651893); format: functional, cell-based, Trypanosoma brucei rhodesiense; conditions: Trypanosoma brucei
[9] = T. cruzi growth inhibition in host cells, dose response, cell-based, plate reader, dry powder, set 2 (AID 652275); format: functional
[10] = Trypanosoma cruzi replication inhibitors in host cells – cell-based, plate reader, dry powder samples, dose response (AID 651845); format: functional
[11] = anti-trypanosomal activity in BESM host cells – imaging, CA-I/72 strain, bovine embryo skeletal muscle, dry powder, dose response (AID 651885); format: functional, cell-based
Bcl-2-like protein 10 = Bcl-2-like protein 10 (Homo sapiens, UniProt Q9HD36); experiment: Bcl-B/TR3 peptide binding disruption – biochemical, fluorescence polarization, FITC-TR3 peptide, selectivity assay for Bfl-1 inhibitor project, primary screen (AID 748);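 also: fluorescence polarization from a fluorescein-labelled TR3 peptide binding purified Bcl-B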
Bcl-2-like protein 10, sequence (Q9HD36 whole entry): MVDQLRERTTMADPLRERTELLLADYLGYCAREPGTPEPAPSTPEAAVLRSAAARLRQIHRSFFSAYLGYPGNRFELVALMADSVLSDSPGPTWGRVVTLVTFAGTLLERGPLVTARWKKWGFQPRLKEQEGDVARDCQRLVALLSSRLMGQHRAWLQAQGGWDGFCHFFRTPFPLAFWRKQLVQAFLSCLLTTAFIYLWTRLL

[12] = IC50 of Artemis nuclease activity blockers – biochemical, fluorescence intensity, dose response (AID 720701); format: functional;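 also: Artemis endonuclease enzyme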
[13] = target: Muscarinic acetylcholine receptor M1 (Rattus norvegicus, UniProt P08482); experiment: concentration-dependent potentiation of ACh at M1 – cell-based, calcium mobilization, CHO-K1, ACh EC20, dose response (AID 2425); format: functional
Muscarinic acetylcholine receptor M1, sequence (P08482 whole entry): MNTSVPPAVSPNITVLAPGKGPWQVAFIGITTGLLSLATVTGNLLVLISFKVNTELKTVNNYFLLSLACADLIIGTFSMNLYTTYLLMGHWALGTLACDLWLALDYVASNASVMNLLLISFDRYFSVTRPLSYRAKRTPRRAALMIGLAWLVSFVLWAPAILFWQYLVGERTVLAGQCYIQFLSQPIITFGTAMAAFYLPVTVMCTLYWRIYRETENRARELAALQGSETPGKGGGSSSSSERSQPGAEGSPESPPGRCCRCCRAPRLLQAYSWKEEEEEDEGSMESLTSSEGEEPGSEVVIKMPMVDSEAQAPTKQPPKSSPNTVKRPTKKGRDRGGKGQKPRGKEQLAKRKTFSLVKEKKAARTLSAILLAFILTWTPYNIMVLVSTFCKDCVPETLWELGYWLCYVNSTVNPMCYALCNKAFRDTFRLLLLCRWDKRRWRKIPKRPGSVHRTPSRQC

Heat shock protein HSP90 = Heat shock protein HSP90 (Homo sapiens, UniProt P07900+P08238); experiment: Hsp90 blockade concentration-response – dose response (AID 712); format: functional
[14] = target: T1, Mannose-6-phosphate isomerase (Homo sapiens, UniProt P34949); experiment: MPI inhibition at elevated mannose 6-phosphate – biochemical, fluorescence intensity, high mannose 6-phosphate, primary screen (AID 1220)
T1 sequence (P34949 whole entry): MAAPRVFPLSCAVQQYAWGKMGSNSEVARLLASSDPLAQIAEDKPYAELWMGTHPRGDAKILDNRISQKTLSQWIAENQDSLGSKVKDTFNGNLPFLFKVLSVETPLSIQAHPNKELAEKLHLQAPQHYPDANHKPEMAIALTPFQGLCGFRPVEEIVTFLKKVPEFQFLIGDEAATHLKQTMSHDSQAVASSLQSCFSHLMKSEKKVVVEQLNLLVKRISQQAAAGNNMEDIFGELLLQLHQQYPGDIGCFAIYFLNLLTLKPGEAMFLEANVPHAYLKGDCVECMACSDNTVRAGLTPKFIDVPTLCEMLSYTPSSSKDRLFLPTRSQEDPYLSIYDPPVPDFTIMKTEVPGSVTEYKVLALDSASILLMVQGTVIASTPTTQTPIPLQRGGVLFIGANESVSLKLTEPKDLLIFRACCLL

[15] = growth inhibition of yeast DHODH-expressing 3D7 parasites – SYBR Green, dry powder samples, dose response (AID 1159570); format: functional, cell-based;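 also: parasite growth measured after 72 hours of compound exposure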
[16] = toxicity to human HepG2 hepatoma cells – cell-based, plate reader, dry powder samples, cytotoxicity control, dose response (AID 1159569); format: functional;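 also: inhibitor potency with signal falling toward the positive control level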
[17] = P. falciparum Dd2 growth inhibitors, dose response, SYBR Green, cherry-picked samples (AID 1159567); format: functional, cell-based
[18] = Dd2 malaria parasite growth inhibition potency – SYBR Green, dry powder samples, dose response (AID 1159566); format: functional, cell-based;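 also: potency for growth inhibition with lower SYBR green DNA signal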
[19] = growth inhibition of PfATP4-mutant resistant parasites – NITD609-resistant line, SYBR Green, dry powder, dose response (AID 1159571); format: functional, cell-based;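 also: parasites synchronized at ring stage by sorbitol before testing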
[20] = M. tuberculosis growth inhibition, HTS (AID 449762); format: functional
[21] = microbe, parasite or virus in culture; format: functional; conditions: Mycobacterium tuberculosis
[22] = target: Induced myeloid leukemia cell differentiation protein Mcl-1 (Homo sapiens, UniProt Q07820); experiment: blockers of MCL1 binding to BIM peptide – biochemical, fluorescence polarization, BIM-BH3 peptide, 1536-well, dose response (AID 2217)
Induced myeloid leukemia cell differentiation protein Mcl-1, sequence (Q07820 whole entry): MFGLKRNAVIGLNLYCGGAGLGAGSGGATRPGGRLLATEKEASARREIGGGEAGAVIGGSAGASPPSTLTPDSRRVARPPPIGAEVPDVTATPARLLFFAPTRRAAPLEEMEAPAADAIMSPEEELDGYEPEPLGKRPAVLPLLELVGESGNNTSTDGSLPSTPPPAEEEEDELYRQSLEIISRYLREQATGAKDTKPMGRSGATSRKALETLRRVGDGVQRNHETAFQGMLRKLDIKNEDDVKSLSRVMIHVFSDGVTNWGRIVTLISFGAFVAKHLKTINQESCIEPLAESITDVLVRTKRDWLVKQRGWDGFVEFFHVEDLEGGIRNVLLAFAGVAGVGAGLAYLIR

Bcl-2-like protein 1 = Bcl-2-like protein 1 (Homo sapiens, UniProt Q07817); experiment: blockers of BCLXL peptide binding – biochemical, fluorescence polarization, 1536-well, selectivity assay for MCL1 inhibitor project, dose response (AID 2218)
Bcl-2-like protein 1, sequence (Q07817 whole entry, the tested form may be a part): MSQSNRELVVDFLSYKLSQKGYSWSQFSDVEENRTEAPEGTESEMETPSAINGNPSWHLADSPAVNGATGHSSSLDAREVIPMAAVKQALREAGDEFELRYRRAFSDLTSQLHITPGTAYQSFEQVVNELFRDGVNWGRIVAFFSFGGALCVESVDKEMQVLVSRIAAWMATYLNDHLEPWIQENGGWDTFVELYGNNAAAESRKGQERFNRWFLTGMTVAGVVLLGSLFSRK

[23] = target: T2, Carboxy-terminal domain RNA polymerase II polypeptide A small phosphatase 1 (Homo sapiens, UniProt Q9GZU7); experiment: CTDSP1 inhibitors, concentration-response, biochemical, absorbance readout, ultra-high-throughput screen actives (AID 540297); format: functional
T2 sequence (Q9GZU7 whole entry): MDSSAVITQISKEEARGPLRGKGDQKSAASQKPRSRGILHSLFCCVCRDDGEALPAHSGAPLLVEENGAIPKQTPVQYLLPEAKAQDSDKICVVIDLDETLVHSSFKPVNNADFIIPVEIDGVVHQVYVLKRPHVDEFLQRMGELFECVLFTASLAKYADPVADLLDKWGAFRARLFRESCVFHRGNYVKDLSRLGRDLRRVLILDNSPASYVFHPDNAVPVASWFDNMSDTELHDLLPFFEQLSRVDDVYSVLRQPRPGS

Caspase-6 = target: T3, Caspase-6 (Homo sapiens, UniProt P55212); experiment: inhibition of CASP6 peptide cleavage – biochemical, VEID-R110 fluorescence, cherry-pick, dose response (AID 720632)
T3 sequence (P55212 whole entry): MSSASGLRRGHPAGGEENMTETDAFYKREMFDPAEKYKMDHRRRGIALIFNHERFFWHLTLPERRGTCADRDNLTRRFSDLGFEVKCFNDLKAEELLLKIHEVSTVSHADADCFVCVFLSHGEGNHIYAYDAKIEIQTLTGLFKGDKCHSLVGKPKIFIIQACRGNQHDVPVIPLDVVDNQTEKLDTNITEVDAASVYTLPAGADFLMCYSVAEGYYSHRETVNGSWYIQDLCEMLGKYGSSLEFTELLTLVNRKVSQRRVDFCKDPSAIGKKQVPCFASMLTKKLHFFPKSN

Caspase-7 = Caspase-7 (Homo sapiens, UniProt P55210); experiment: caspase-7 enzyme inhibition, selectivity check – biochemical, DEVD-R110 fluorescence, cherry-pick, selectivity assay for caspase-6 inhibitor project, dose response (AID 743295); format: functional
Caspase-7, sequence (P55210 24-198 limits assumed): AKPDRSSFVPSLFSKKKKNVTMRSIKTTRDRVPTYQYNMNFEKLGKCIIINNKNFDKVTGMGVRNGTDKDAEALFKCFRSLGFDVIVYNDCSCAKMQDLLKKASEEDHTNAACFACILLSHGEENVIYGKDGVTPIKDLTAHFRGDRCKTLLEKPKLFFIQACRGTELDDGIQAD
Caspase-7, sequence (P55210 207-303 limits assumed): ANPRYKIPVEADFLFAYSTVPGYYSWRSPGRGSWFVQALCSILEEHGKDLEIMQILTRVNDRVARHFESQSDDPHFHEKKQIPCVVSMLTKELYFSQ

Caspase-8 = Caspase-8 (Homo sapiens, UniProt Q14790); experiment: inhibitors of purified CASP8 protease – biochemical, Z-IETD-R110 fluorescence, cherry-picked samples, selectivity assay for caspase-6 inhibitor project, dose response (AID 743294)
Caspase-8, sequence (Q14790 217-374 limits assumed): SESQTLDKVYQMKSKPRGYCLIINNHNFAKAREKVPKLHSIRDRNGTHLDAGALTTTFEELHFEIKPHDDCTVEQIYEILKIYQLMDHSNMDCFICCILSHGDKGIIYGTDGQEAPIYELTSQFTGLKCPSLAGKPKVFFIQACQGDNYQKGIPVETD
Caspase-8, sequence (Q14790 385-479 limits assumed): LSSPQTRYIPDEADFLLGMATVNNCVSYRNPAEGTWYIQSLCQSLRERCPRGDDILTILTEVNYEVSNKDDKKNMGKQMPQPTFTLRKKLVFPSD

Protein Tat = Protein Tat (Human immunodeficiency virus type 1 group M subtype B (isolate HXB2)(HIV-1), UniProt P04608); format: functional;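 also: tat binding to TAR RNA read out by fluorescence polarization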
Protein Tat, sequence (P04608 whole entry): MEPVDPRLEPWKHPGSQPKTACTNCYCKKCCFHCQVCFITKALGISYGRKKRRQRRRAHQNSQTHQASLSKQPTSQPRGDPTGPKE

COC(=O)Nc1nc2cc(C(=O)c3ccccc3)ccc2[nH]1 [MEBENDAZOLE]
IC50 [1]: 0.0761 µM (active) | IC50 [2]: 0.08 µM (active)

COc1ccc(CN(C)C[C@H]2Oc3c(NC(=O)c4ccncc4)cccc3C(=O)N([C@@H](C)CO)C[C@@H]2C)cc1
IC50 [3]: 8.41 µM (inactive) | IC50 [4]: > 100 µM (inactive) | IC50 [5]: 8.41 µM (inactive) | IC50 [6]: > 100 µM (inactive) | AC50 [7]: 0.25 µM (active) | IC50 [8]: 15.4 µM (inactive) | AC50 [9]: 0.127 µM (active) | AC50 [10]: 0.127 µM (active) | IC50 [11]: 0.478 µM (active)

Cc1cc(OCC(=O)Nc2ccc(N3CCCC3)cc2)cc(C)c1Cl
IC50 (Bcl-2-like protein 10): > 100 µM (inactive) | IC50 [12]: > 20 µM (inactive)

Cn1cc(-c2ccc(CN3C(=O)C(=O)c4ccccc43)c(F)c2)cn1
EC50 [13]: 0.845 µM (active)

CCOC(=O)c1c(C)oc2c1c(/C=N/CC1CCCO1)c(O)c1ccccc12 (stereo not given)
IC50 (Heat shock protein HSP90): 13.307 µM | IC50 [14]: > 50 µM (not active)

C[C@H](CO)N1C[C@H](C)[C@H](CN(C)S(=O)(=O)c2ccc(F)cc2)OCc2ccccc2-c2c(n(C)c3ccccc23)C1=O
AC50 [15]: 0.572 µM (active) | AC50 [16]: 7.35 µM (active) | AC50 [17]: 1.1 µM (active) | AC50 [18]: 0.36 µM (active) | AC50 [19]: 0.481 µM (active)

O=C(CSc1n[nH]c(-c2ccccc2)n1)Nc1ccc(Br)cn1
IC50 [20]: > 100 µM (active) | CC50 [21]: > 40 µM (active)

Cc1ccc(C)c(NC(=O)CN(C)C(=O)c2cccc(-n3cccc3)c2)c1
IC50 [22]: 10.9 µM (not active) | IC50 (Bcl-2-like protein 1): > 109 µM (not active) | IC50 [23]: 6.04 µM (active) | AC50 (Caspase-6): 4.58 µM (active) | AC50 (Caspase-7): > 70 µM (inactive) | AC50 (Caspase-8): > 70 µM (inactive) | IC50 (Protein Tat): > 100 µM (active)
